Test [1] concerns msP rats. Nature of the test: Stress-induced (yohimbine) reinstatement of ethanol-seeking in msP rats. The conditions noted are these: for Reduction vs. Vehicle (lever presses, yohimbine reinstatement) / Avg Lever Presses (Drug-treated): male msP rats, 30 mg/kg oral; for Avg Lever Presses (Drug-treated): yohimbine 2.0 mg/kg ip; for stress-induced reinstatement of ethanol-seeking: msP rats, result in words. Type of test: in vivo, rat. The text has this: Stress-Induced Reinstatement in msP Rats:
Stress is a key trigger for relapse to drug- and alcohol-seeking in humans and rodents (Sinha R (2008) Chronic stress, drug use, and vulnerability to addiction. Ann N Y Acad Sci 1141:105-130), and can be modeled in rats using a stress-induced reinstatement procedure. In this procedure, stress-induced reinstatement of alcohol-seeking is elicited by administration of the alpha2 adrenoceptor antagonist yohimbine, a known pharmacological stressor (Le A D, Harding S, Juzytsch W, Funk D and Shaham Y (2005) Role of alpha-2 adrenoceptors in stress-induced reinstatement of alcohol seeking and alcohol self-administration in rats. Psychopharmacology (Berl) 179:366-373).
Male msP rats are obtained from the University of Camerino (Marche, Italy) and individually housed with ad libitum access to water and standard laboratory chow. Rats are trained to lever press for 10% ethanol in water (v/v) in standard operant chambers (MED Associates, Inc., St. Albans, Vt.) located in sound-attenuating, ventilated environmental cubicles. The chambers consist of two stainless steel and two clear Plexiglas walls. The floor grid of the operant chambers consists of 0.5 cm diameter stainless steel bars placed approximately 1.5 cm apart. Each operant chamber is equipped with a drinking reservoir 4 cm above the grid floor, with two retractable operant levers located approximately 3 cm on either side of the drinking receptacle. Fluid delivery, lever presses, and presentation of visual stimuli (illumination of a white house light) are controlled by an IBM compatible computer for offline analysis.
Rats are first trained to self-administer ethanol solution in 30-min daily operant sessions under a FR1 schedule of reinforcement, in which each response on the active lever results in delivery of 0.1 ml of ethanol. Each ethanol delivery is associated with a 5-sec time-out signalled by illumination of a white house light. Alcohol self-administration training continues until stable baseline responding is achieved. […] The procedure of each session is the same as ethanol self-administration sessions except that the lever responses are no longer reinforced. Animals are pre-treated with vehicle for 3 days before the initial administration of ORL-1 receptor antagonists in order to familiarize them with the oral administration procedure. The msP rats are then subjected to the reinstatement test conducted under the same extinction conditions. Reinstatement consists of oral administration of vehicle or test compound (3 or 30 mg/kg, n=10/group, solubilized in a 1:1 mixture of distilled water and 1M H3PO4, using gentle warming in a 45-60° C. water bath), followed 30-min later by intraperitoneal administration of yohimbine (2.0 mg/kg) 30-min before the operant session.

Test [2] deals with extracellular dopamine (DA) in the rat nucleus accumbens. As to the kind of experiment: Ethanol-stimulated increases in extracellular dopamine levels in the nucleus accumbens (microdialysis). Type of test: in vivo, Sprague-Dawley rats. The text has this:
Ethanol-Stimulated Increases in Extracellular Dopamine Levels in the Nucleus Accumbens:
Male Sprague-Dawley rats with a body weight of 260-300 g from Taconic Farms (Germantown, N.Y.) are implanted with a guide cannula (Bioanalytical Systems Inc, West Lafayette, Ind.) in the nucleus accumbens by the vendor 5-7 days before the experiment. Stereotaxic coordinates for the nucleus accumbens cannula are: A (anterior to bregma), 1.7 mm; L (lateral from the midsagittal suture, right side), 1.0 mm; and V (ventral from the dura surface), −6.0 mm (Paxinos and Watson, 1986). A concentric type probe (BR-2) from Bioanalytical Systems Inc. (West Lafayette, Ind.) is flushed with water and carefully inserted through the cannula about 16 hours before the experiment so that 2 mm of the membrane tip extends below the end of the guide cannula. The rat is then placed in a plastic test bowl to acclimate overnight. Based on methods modified from Melendez et al. (Melendez R I, Rodd-Henricks Z A, McBride W J and Murphy J M (2003), Alcohol stimulates the release of dopamine in the ventral pallidum but not in the globus pallidus: a dual-probe microdialysis study. Neuropsychopharmacology 28:939-946), the rat is connected to a fraction collection system for freely moving animals on the morning of the experiment (Raturn, BioAnalytical Systems Inc, West Lafayette, Ind.). The input tube of the dialysis probe is connected to a syringe pump (BeeHive and BabyBee, Bioanalytical Systems Inc, West Lafayette, Ind.) which delivers an artificial cerebrospinal fluid (150 mM NaCl, 3 mM KCl, 1.7 mM CaCl2 and 0.9 mM MgCl2 ([…])) to the probe at a final collection rate of 1.5 μL/min. The output tubes from the rats are attached to a refrigerated fraction collector (Bioanalytical Systems Inc, West Lafayette, Ind.). After a period of about an hour at an initial perfusion rate of 5.0 μL/min, the flow rate is decreased to 2.0 μL/min for equilibration of the probe and establishment of stable baseline levels for 1 hour, then collection of 20 minute fractions is started. Four baseline samples are collected before injection of any drugs.
Test compound is administered orally at 30 mg/kg (2 ml/kg dose volume, dissolved in a vehicle consisting of 20% Captisol® in 25 mM phosphate buffer at pH=3). The compound is administered either alone (10 min into the 4th sample; 0 min time point) or in combination with ethanol (10 min into the 1st sample; −60 min time point). Ethanol is administered intraperitoneally (ip) at a dose of 1.1 g/kg in a 15% (v/v) solution in 0.9% saline in a volume of 2.9 ml per rat. Ethanol is administered 10 min into the 4th sample (0 min time point). Dialysate samples are transferred to an Alcott 718 Autosampler/Injector with the sample cooling tray set to 5° C. (Alcott Inc., Norcross, Ga.). […]

[3] abbreviates: compound 30 mg/kg oral + EtOH 1.1 g/kg ip.

We go through 2 compounds from US9371335B2, “Spirothienopyran-piperidine derivatives as ORL-1 receptor antagonists for their use in the treatment of alcohol dependence and abuse” (Eli Lilly and Company, priority 2011, dated 2016).

For the compound `Cc1nn(-c2ncccc2CO)cc1CN1CCC2(CC1)OCC(F)(F)c1cc(Cl)sc12` [Compound 1, [2-[4-[(2-chloro-4,4-difluoro-spiro[5H-thieno[2,3-c]pyran-7,4′-piperidine]-1′-yl)methyl]-3-methyl-pyrazol-1-yl]-3-pyridyl]methanol], in test [1], the “Reduction vs. Vehicle (lever presses, yohimbine reinstatement)” value was found to be 72.7%; the “Avg Lever Presses (Drug-treated)” value worked out at 4.8; the “stress-induced reinstatement of ethanol-seeking” value was “reduce stress-induced reinstatement of ethanol-seeking”. Further, in test [2] (setting [3]), the “Mean DA level (% of baseline) during 120 min period post-EtOH injection” value is 102.78 % of baseline and the “Reduction of DA response relative to Vehicle” value stood at 88.16%. Further, the “Mean DA level (% of baseline) during 120 min period post-EtOH injection” value in test [2] (compound 30 mg/kg oral + Vehicle (no ethanol)) is on record as 98.53 % of baseline. Also, in test [2] (result in words), the “ethanol-stimulated increase in extracellular DA concentration in the nucleus accumbens” value is “prevent the increase in extracellular DA concentrations in the nucleus accumbens”.
`Cc1nn(-c2ncccc2F)cc1CN1CCC2(CC1)OCC(F)(F)c1cc(Cl)sc12` [Compound 2, 2-Chloro-4,4-difluoro-1′-[[1-(3-fluoro-2-pyridyl)-3-methyl-pyrazol-4-yl]methyl]spiro[5H-thieno[2,3-c]pyran-7,4′-piperidine]]: in test [1], the “Reduction vs. Vehicle (lever presses, yohimbine reinstatement)” value is 69.3%; the “Avg Lever Presses (Drug-treated)” value is 5.5; the “stress-induced reinstatement of ethanol-seeking” value is given as “reduce stress-induced reinstatement of ethanol-seeking”.
